One data set has as its system IL-8. Put plainly: IL-8 RNA expression in HaCaT cells treated with heat-treated C. acnes. To be noted: pre-treated 1 hour, heat-treated C. acnes (100MOI) 4 hours, real-time PCR; compared to control group induced to C. acnes; FIG. 11. Format: cell-based, human. How it is done:
(§1) At first, GENSCO1 fermented filtrates were pre-treated for 1 hour to cells in which 2×10^5 of HaCaT human keratinocyte lines were attached in a 6-well plate, respectively, by culturing them in a 37° C. and 5% CO2 incubator for 24 hours. Then, the heat-treated C. acnes (100MOI) was treated and was reacted for 4 hours. Then, after extracting RNA for each sample, the RNA expression for the inflammation response cytokine factors, IL-6 and IL-8 was confirmed by real-time PCR.
Background: Quantitative PCR measures a nucleic acid by following its amplification.

The test system of the next data set is IL-6. The data set can be described thus: IL-6 RNA expression in HaCaT cells treated with heat-treated C. acnes. The data set is classed as cell-based, human. The conditions noted are these: pre-treated 1 hour, heat-treated C. acnes (100MOI) 4 hours, real-time PCR; FIG. 12. The protocol: as §1
A further data set deals with HaCaT cells. The data set can be described thus: Cytotoxicity (MTT) in HaCaT cells. Format: cell-based, human. To be noted: experimental group in which rosmarinic acid was added, 48 hours. How it is done:
To evaluate the cytotoxicity of fermented filtrates prepared in the Example 3, the following experiment was progressed. HaCaT cells were attached on a 96-well cell culture plate for 24 hours at 5×10^3 cells/well each and then the test group samples were added by concentration to culture it under the condition of 5% CO2 and 37° C. for 48 hours. 48 hours later, the cultured cell medium was removed, and 0.5 mg/ml dimethylthiazol-2-y1)-2-5-diphenyltetrazolium bromide (MTT) formazan solution was treated to cells, and they were reacted for 4 hours, and after the time passage, all the cell medium was removed and the formazan solution was dissolved by DMSO and then the absorbance was measured at 570 nm with SpectraMax M2. Then, the survival rate of the HaCaT cell line was calculated by converting with the equation of O.Dsample/O.Dcontrol×100.

The subject of data set [1] is Staphylococcus aureus KCTC 1621. The data set can be described thus: Growth inhibition, overlay clear zone test (S. aureus). The data set is classed as cell-based. To be noted: RCM agar overlay, anaerobic, 37° C., about 40 hours; triclosan 10 mg/ml. The protocol:
(§2) The effect of growth inhibition of S. aureus and C. acnes was confirmed by observing formation of a clear zone. […] The experiment was progressed, expecting that S. aureus and C. acnes around Cutibacterium avidum GENSC01 could not grow and they became transparent, if Cutibacterium avidum GENSC01 had the effect of inhibiting the growth of bacteria. The Cutibacterium avidum GENSC01 culture broth was collected with a platinum loop and was anaerobically cultured in a thin RCM agar plate at 37° C. for 72 hours by drawing a line about 2.5 cm. After confirming that Cutibacterium avidum GENSC01 sufficiently grew, S. aureus and C. acnes strains adjusted to 10^4 cfu/ml were inoculated in 10 ml RCM agar at about 45° C. which was not yet solidified, and they were well suspended before the medium was hardened, and they were evenly solidified by pouring them on the agar plate in which Cutibacterium avidum GENSC01 grew. In the solidified agar plate, S. aureus and C. acnes were further cultured anaerobically at 37° C. for about 40 hours and about 72 hours, respectively, to observe the size of the clear zone appearing around Cutibacterium avidum GENSC01. As the negative control group, phosphate-buffered saline (PBS) was used, and as the positive control group, triclosan was used, and S. aureus and C. acnes were treated at an amount of 10 mg/ml and 200 mg/ml, respectively.

The subject of data set [2] is Cutibacterium acnes ATCC 6919. The data set can be described thus: Growth inhibition, overlay clear zone test (C. acnes). Format: cell-based. To be noted: RCM agar overlay, anaerobic, 37° C., about 72 hours; triclosan 200 mg/ml. How it is done:
as §2

The structures appear in SMILES notation.

With `O=C(/C=C/c1ccc(O)c(O)c1)O[C@H](Cc1ccc(O)c(O)c1)C(=O)O` [rosmarinic acid], the “IL-8 expression (inflammation response)” value in the data set on IL-8 is on record as “inflammation response was reduced”. Further, in the data set with IL-6, the “expression of IL-6” value is listed as “reduced at a similar level”. Also, the cell survival rate entry in the data set on HaCaT cells is reported as “could be increased”.
As to `Oc1cc(Cl)ccc1Oc1ccc(Cl)cc1Cl` [triclosan], the “growth inhibition of S. aureus (clear zone)” value in data set [1] is on record as “the clear zone was observed, but it had much smaller area than GENSC01 treatment”. In data set [2], the “growth inhibition of C. acnes (clear zone)” value is listed as “the clear zone was observed, but it had much smaller area than GENSC01 treatment”.

The values are drawn from patent US11478513B2, “Cutibacterium avidum strain, and composition for preventing or treating atopic dermatitis, comprising strain or cultured product thereof” (priority 2018, dated 2022).
